Source: patent US7767240B2, “Microbiological control in poultry processing” (priority 2001, dated 2010)

Experiments:
Experiment in all cases: Bacteria count per bird over 20-day storage (Example 4)
Format in all cases: cell-based
Conditions in all cases: pH 8
[1] = tested on: Campylobacter jejuni ATCC 29428
Procedure: (§1) A study was conducted to determine the effect of Clorox® bleach, and 1,3-dibromo-5,5-dimethylhydantoin (DBDMH) on carcass bacteria residual after 1.5 hour in a chill tank solution and spoilage 20-day shelf life longevity (caused by bacteria contamination). Tests were conducted at pH 8 (adjusted by trisodium phosphate). Skin pigmentation (Minolta Color Meter L value or Lightness, a value or redness and b value or yellowness) were determined before and post-processing.
(§2) In general the study involved normal processing of 56-day-old birds, immersing carcasses first in a warm bath containing 10^4 per mL Escherichia coli, 10^4 per mL Salmonella enteritidis, 10^4 per mL Pseudomonas aeruginosa, 10^4 per mL Campylobacter jejuni, and 10^4 per mL spoilage bacteria each from […] strains (Listeria monocytogenes and Shigella sonnei). Carcass were then immersed in a chill tank “soup”, containing normal organic fluids (blood, fat, skin, and meat particles) and containing various disinfectants (termed test materials).
(§3) A DBDMH stock solution and test solutions, a bacteria stock solution, and a “chicken soup” were prepared as in Example 3. In addition, the bacterial broth treatments, the whole bird wash sampling procedure, and the methodologies used for quantitative or qualitative determinations for bacterial organisms were conducted as in Example 3.
(§4) In greater detail the trial events and experimental design used in this group of tests were as follows: • a) Test microorganisms used were: • Escherichia coli ATCC 11229 • Pseudomonas aeruginosa ATCC 15442 • Salmonella enteritidis ATCC 13076 • Shigella sonnei ATCC 9290 • Listeria monocytogenes ATCC 7644 • Campylobacter jejuni ATCC 29428 • b) Test Procedure: All test strains were grown individually at 35° C. for 24 hours in the media specified in Table 12. Cells were harvested by centrifugation at 10,000×g for 10 minutes and washed twice with Butterfield's Phosphate Buffer (BPB of pH 7.2). Cells were resuspended in BPB to obtain a cell suspension of approximately 1.0×10^8 CFU/mL for each microorganism. The target inoculum levels were approximately 10^6 CFU/mL in the final test solutions. In the cases of S. enteritidis and P. aeruginosa the species were washed by pouring into prepared sterile centrifuge tubes with cheesecloth filters. The culture was then pelleted and washed using above techniques and repeated 3 times. • c) The birds (56 days old) were processed under normal commercial conditions. • d) The bacteria were added to a large batch of the “chicken soup”, and then aliquots of the resultant mixture were distributed equally among the chill waters used for each test. Then the particular disinfectant composition under test was added to one of the chill waters. […]

[2] = tested on: Escherichia coli ATCC 11229
Procedure: as §1, §2, §3, §4

[3] = tested on: Listeria monocytogenes ATCC 7644
Procedure: as §1, §2, §3, §4

[4] = tested on: Pseudomonas aeruginosa ATCC 15442
Procedure: as §1, §2, §3, §4

[5] = tested on: Shigella sonnei ATCC 9290
Procedure: as §1, §2, §3, §4

CC1(C)C(=O)N(Br)C(=O)N1Br [DBDMH, 1,3-dibromo-5,5-dimethylhydantoin]
average bacteria count per bird, C. jejuni ([1]; Day 0, 10 ppm): 519 per bird | average bacteria count per bird, C. jejuni ([1]; Day 0, 20 ppm): 17 per bird | average bacteria count per bird, C. jejuni ([1]; Day 2, 10 ppm): 573 per bird | average bacteria count per bird, C. jejuni ([1]; Day 2, 20 ppm): 25 per bird | average bacteria count per bird, C. jejuni ([1]; Day 4, 10 ppm): 627 per bird | average bacteria count per bird, C. jejuni ([1]; Day 4, 20 ppm): 39 per bird | average bacteria count per bird, C. jejuni ([1]; Day 6, 10 ppm): 671 per bird | average bacteria count per bird, C. jejuni ([1]; Day 6, 20 ppm): 78 per bird | average bacteria count per bird, C. jejuni ([1]; Day 8, 10 ppm): 834 per bird | average bacteria count per bird, C. jejuni ([1]; Day 8, 20 ppm): 157 per bird | average bacteria count per bird, C. jejuni ([1]; Day 10, 10 ppm): 1043 per bird | average bacteria count per bird, C. jejuni ([1]; Day 10, 20 ppm): 294 per bird | average bacteria count per bird, C. jejuni ([1]; Day 12, 10 ppm): 1309 per bird | average bacteria count per bird, C. jejuni ([1]; Day 12, 20 ppm): 594 per bird | average bacteria count per bird, C. jejuni ([1]; Day 14, 10 ppm): 1551 per bird | average bacteria count per bird, C. jejuni ([1]; Day 14, 20 ppm): 1191 per bird | average bacteria count per bird, C. jejuni ([1]; Day 16, 10 ppm): 1880 per bird | average bacteria count per bird, C. jejuni ([1]; Day 16, 20 ppm): 2259 per bird | average bacteria count per bird, C. jejuni ([1]; Day 18, 10 ppm): 2359 per bird | average bacteria count per bird, C. jejuni ([1]; Day 18, 20 ppm): 2835 per bird | average bacteria count per bird, C. jejuni ([1]; Day 20, 10 ppm): 2789 per bird | average bacteria count per bird, C. jejuni ([1]; Day 20, 20 ppm): 3059 per bird | average bacteria count per bird, E. coli ([2]; Day 0, 10 ppm): 861 per bird | average bacteria count per bird, E. coli ([2]; Day 0, 20 ppm): 22 per bird | average bacteria count per bird, E. coli ([2]; Day 2, 10 ppm): 966 per bird | average bacteria count per bird, E. coli ([2]; Day 2, 20 ppm): 31 per bird | average bacteria count per bird, E. coli ([2]; Day 4, 10 ppm): 1050 per bird | average bacteria count per bird, E. coli ([2]; Day 4, 20 ppm): 49 per bird | average bacteria count per bird, E. coli ([2]; Day 6, 10 ppm): 1124 per bird | average bacteria count per bird, E. coli ([2]; Day 6, 20 ppm): 100 per bird | average bacteria count per bird, E. coli ([2]; Day 8, 10 ppm): 1364 per bird | average bacteria count per bird, E. coli ([2]; Day 8, 20 ppm): 204 per bird | average bacteria count per bird, E. coli ([2]; Day 10, 10 ppm): 1621 per bird | average bacteria count per bird, E. coli ([2]; Day 10, 20 ppm): 401 per bird | average bacteria count per bird, E. coli ([2]; Day 12, 10 ppm): 2063 per bird | average bacteria count per bird, E. coli ([2]; Day 12, 20 ppm): 775 per bird | average bacteria count per bird, E. coli ([2]; Day 14, 10 ppm): 2581 per bird | average bacteria count per bird, E. coli ([2]; Day 14, 20 ppm): 1453 per bird | average bacteria count per bird, E. coli ([2]; Day 16, 10 ppm): 3005 per bird | average bacteria count per bird, E. coli ([2]; Day 16, 20 ppm): 2933 per bird | average bacteria count per bird, E. coli ([2]; Day 18, 10 ppm): 3617 per bird | average bacteria count per bird, E. coli ([2]; Day 18, 20 ppm): 3645 per bird | average bacteria count per bird, E. coli ([2]; Day 20, 10 ppm): 4460 per bird | average bacteria count per bird, E. coli ([2]; Day 20, 20 ppm): 4036 per bird | average bacteria count per bird, L. monocytogenes ([3]; Day 0, 10 ppm): 528 per bird | average bacteria count per bird, L. monocytogenes ([3]; Day 0, 20 ppm): 13 per bird | average bacteria count per bird, L. monocytogenes ([3]; Day 2, 10 ppm): 601 per bird | average bacteria count per bird, L. monocytogenes ([3]; Day 2, 20 ppm): 19 per bird | average bacteria count per bird, L. monocytogenes ([3]; Day 4, 10 ppm): 670 per bird | average bacteria count per bird, L. monocytogenes ([3]; Day 4, 20 ppm): 28 per bird | average bacteria count per bird, L. monocytogenes ([3]; Day 6, 10 ppm): 741 per bird | average bacteria count per bird, L. monocytogenes ([3]; Day 6, 20 ppm): 55 per bird | average bacteria count per bird, L. monocytogenes ([3]; Day 8, 10 ppm): 880 per bird | average bacteria count per bird, L. monocytogenes ([3]; Day 8, 20 ppm): 107 per bird | average bacteria count per bird, L. monocytogenes ([3]; Day 10, 10 ppm): 1096 per bird | average bacteria count per bird, L. monocytogenes ([3]; Day 10, 20 ppm): 218 per bird | average bacteria count per bird, L. monocytogenes ([3]; Day 12, 10 ppm): 1335 per bird | average bacteria count per bird, L. monocytogenes ([3]; Day 12, 20 ppm): 442 per bird | average bacteria count per bird, L. monocytogenes ([3]; Day 14, 10 ppm): 1564 per bird | average bacteria count per bird, L. monocytogenes ([3]; Day 14, 20 ppm): 843 per bird | average bacteria count per bird, L. monocytogenes ([3]; Day 16, 10 ppm): 1901 per bird | average bacteria count per bird, L. monocytogenes ([3]; Day 16, 20 ppm): 1646 per bird | average bacteria count per bird, L. monocytogenes ([3]; Day 18, 10 ppm): 2221 per bird | average bacteria count per bird, L. monocytogenes ([3]; Day 18, 20 ppm): 1985 per bird | average bacteria count per bird, L. monocytogenes ([3]; Day 20, 10 ppm): 2678 per bird | average bacteria count per bird, L. monocytogenes ([3]; Day 20, 20 ppm): 2238 per bird | average bacteria count per bird, P. aeruginosa ([4]; Day 0, 10 ppm): 743 per bird | average bacteria count per bird, P. aeruginosa ([4]; Day 0, 20 ppm): 6 per bird | average bacteria count per bird, P. aeruginosa ([4]; Day 2, 10 ppm): 820 per bird | average bacteria count per bird, P. aeruginosa ([4]; Day 2, 20 ppm): 9 per bird | average bacteria count per bird, P. aeruginosa ([4]; Day 4, 10 ppm): 931 per bird | average bacteria count per bird, P. aeruginosa ([4]; Day 4, 20 ppm): 13 per bird | average bacteria count per bird, P. aeruginosa ([4]; Day 6, 10 ppm): 1013 per bird | average bacteria count per bird, P. aeruginosa ([4]; Day 6, 20 ppm): 25 per bird | average bacteria count per bird, P. aeruginosa ([4]; Day 8, 10 ppm): 1268 per bird | average bacteria count per bird, P. aeruginosa ([4]; Day 8, 20 ppm): 48 per bird | average bacteria count per bird, P. aeruginosa ([4]; Day 10, 10 ppm): 1485 per bird | average bacteria count per bird, P. aeruginosa ([4]; Day 10, 20 ppm): 91 per bird | average bacteria count per bird, P. aeruginosa ([4]; Day 12, 10 ppm): 1730 per bird | average bacteria count per bird, P. aeruginosa ([4]; Day 12, 20 ppm): 186 per bird | average bacteria count per bird, P. aeruginosa ([4]; Day 14, 10 ppm): 2055 per bird | average bacteria count per bird, P. aeruginosa ([4]; Day 14, 20 ppm): 363 per bird | average bacteria count per bird, P. aeruginosa ([4]; Day 16, 10 ppm): 2560 per bird | average bacteria count per bird, P. aeruginosa ([4]; Day 16, 20 ppm): 700 per bird | average bacteria count per bird, P. aeruginosa ([4]; Day 18, 10 ppm): 3087 per bird | average bacteria count per bird, P. aeruginosa ([4]; Day 18, 20 ppm): 826 per bird | average bacteria count per bird, P. aeruginosa ([4]; Day 20, 10 ppm): 3853 per bird | average bacteria count per bird, P. aeruginosa ([4]; Day 20, 20 ppm): 908 per bird | average bacteria count per bird, S. sonnei ([5]; Day 0, 10 ppm): 845 per bird | average bacteria count per bird, S. sonnei ([5]; Day 0, 20 ppm): 8 per bird | average bacteria count per bird, S. sonnei ([5]; Day 2, 10 ppm): 962 per bird | average bacteria count per bird, S. sonnei ([5]; Day 2, 20 ppm): 12 per bird | average bacteria count per bird, S. sonnei ([5]; Day 4, 10 ppm): 1101 per bird | average bacteria count per bird, S. sonnei ([5]; Day 4, 20 ppm): 19 per bird | average bacteria count per bird, S. sonnei ([5]; Day 6, 10 ppm): 1288 per bird | average bacteria count per bird, S. sonnei ([5]; Day 6, 20 ppm): 37 per bird | average bacteria count per bird, S. sonnei ([5]; Day 8, 10 ppm): 1604 per bird | average bacteria count per bird, S. sonnei ([5]; Day 8, 20 ppm): 76 per bird | average bacteria count per bird, S. sonnei ([5]; Day 10, 10 ppm): 1954 per bird | average bacteria count per bird, S. sonnei ([5]; Day 10, 20 ppm): 156 per bird | average bacteria count per bird, S. sonnei ([5]; Day 12, 10 ppm): 2347 per bird | average bacteria count per bird, S. sonnei ([5]; Day 12, 20 ppm): 323 per bird | average bacteria count per bird, S. sonnei ([5]; Day 14, 10 ppm): 2848 per bird | average bacteria count per bird, S. sonnei ([5]; Day 14, 20 ppm): 657 per bird | average bacteria count per bird, S. sonnei ([5]; Day 16, 10 ppm): 3513 per bird | average bacteria count per bird, S. sonnei ([5]; Day 16, 20 ppm): 1286 per bird | average bacteria count per bird, S. sonnei ([5]; Day 18, 10 ppm): 4242 per bird | average bacteria count per bird, S. sonnei ([5]; Day 18, 20 ppm): 1604 per bird | average bacteria count per bird, S. sonnei ([5]; Day 20, 10 ppm): 4941 per bird | average bacteria count per bird, S. sonnei ([5]; Day 20, 20 ppm): 1834 per bird
